# Laboratory results published in US20050267073A1, “Triheterocyclic compounds, compositions, and methods for treating cancer or viral diseases” (priority 2004, published 2005).
# Where a name gives a salt, the structure may show the parent alone. Read-outs that look alike come from different tables or passages of the source.
# Tests used:
# [1] = tested on: human prostatic adenocarcinoma cancer PC3 cells; assay: Growth of PC3 prostatic tumors in SCID mice; format: in vivo; conditions: 5 consecutive intravenous injections; Compound 1 Mesylate Salt 4.84 μMoles/Kg; Compound 66 4.84 or 14.51 μMoles/Kg; FIG. 6
# Procedure: The human prostatic adenocarcinoma cancer PC3 cells were purchased from the American Type Culture Collection (ATCC). These cells were confirmed to be free of mycoplasma infection. Cells were maintained in the Roswell Park Memorial Institute (RPMI), supplemented with 10% inactivated fetal bovine serum and 1% penicillin-streptomycin-L-Glutamine, under 5% carbon dioxide (CO2) at 37° C. For prostatic-tumor induction, cells were grown lower than 70% confluence in complete medium and then collected with trypsin (Bio Whittaker, Rockland, Me., USA). Cells were then centrifuged and washed 2 times in phosphate buffer solution (PBS) and resuspended in PBS at 1.5×10^6 cells/0.1 mL. PC3 cells were then transplanted subcutaneously into the flank of SCID mice (Charles River Laboratories, Wilmington, Mass., USA), as a suspension of tumor cells (1.5×10^6 cells in 100 μL PBS), under a laminar airflow hood. Eleven (11) days later, the size of each tumor was measured. […] Relative tumor size and volume was calculated as follows: length (cm)×[width (cm)]^2/2. […]
# [2] = Shelf stability (precipitation) of formulation; format: physicochemical; conditions: 0.6 mg/mL in 9.6% polyethylene glycol 300, 0.4% polysorbate 20 and 5% dextrose
# Procedure: (§5) To determine whether a compound is soluble in a solution, the solution was filtered on 0.2 μM polytetrafluoroethylene filters (Whatman Inc. Clifton, N.J., USA) and the compound concentration in the filtrate was measured by LC/MS and compared to the expected concentration.
# [3] = biological target: T1, human placental alkaline phosphatase (Homo sapiens, UniProt P05187); assay: Conversion of phosphate pro-drug by human placental alkaline phosphatase in vitro; format: in vitro ADME; conditions: 15 μM, 0.02 U/100 μL enzyme, pH 7.4; 30, 60, 120 minutes; FIG. 4
# T1 construct: purchased Sigma-Aldrich Canada Ltd
# Procedure: (§1) The conversion into biologically active drug of phosphate pro-drugs by calf intestinal alkaline phosphatase and human placental alkaline phosphatase was measured in vitro using purified enzymes. Purified calf intestinal alkaline phosphatase (Roche Diagnostic Inc. Laval, Quebec, Canada) or human placental alkaline phosphatase (Sigma-Aldrich Canada Ltd. Oakville, Ontario, Canada) was added at a concentration of 0.02 U/100 μL to a solution containing 15 μM of Compound 66, 20 mM Tris-HCl, pH 7.4 and 0.9% NaCl. The solutions were incubated for 30, 60 or 120 minutes. A solution containing 15 μM of Compound 66, 20 mM Tris-HCl, pH 7.4 and 0.9% NaCl was used as a reference (time=0 minutes). To each solution, an equal volume (100 μL) of ice-cold acetonitrile was added, and then the mixture was vortexed and transferred to glass vials. A standard concentration curve of the pro-drug and the drug was prepared in 10 mM Tris-HCl, pH 7.4, 0.45% NaCl and 50% acetonitrile. All samples were immediately analyzed by LC/MS.
# [4] = tested on: calf intestinal alkaline phosphatase; assay: Conversion of phosphate pro-drug by calf intestinal alkaline phosphatase in vitro; format: in vitro ADME; conditions: 15 μM, 0.02 U/100 μL enzyme, pH 7.4; 30, 60, 120 minutes; FIG. 5
# Procedure: as §1
# physchem = conditions: water
# Procedure: as §5
# [5] = format: in vivo, CB17 SCID/SCID mice; conditions: for body weight change: 4.5 mg/kg IV once daily for five days, FIG. 2
# Procedure: Treatments started on day fourteen after C33A cells transplantation. […]. The negative control group was treated with vehicle alone. […].
# Observation continued for 40 days after initial tumor implantation.
# [6] = tested on: MCF-7 human breast cancer cell line; conditions: read-out: IC50 of Compound 1 tartrate; MCF-7, Breast; ATP levels 72 h post-treatment compared to untreated cells
# Procedure: (§2) The cells lines were plated in 96-well microtiter plates (PerkinElmer Life Sciences Inc, Boston, Mass., USA) at a confluency that allowed them to reach confluence after 4 days of growth. […] The total dimethyl sulfoxide on the cells was 1%. After 3 days of incubation the ATP levels in the cells were quantified using a luminescent ViaLight detection system (Bio-Whittaker, MD, USA).
# [7] = tested on: ADR-RES human breast cancer cell line; conditions: read-out: IC50 of Compound 1 tartrate; NCI/ADR-RES, Breast (Mutli-drug resistant); ATP levels 72 h post-treatment compared to untreated cells
# Procedure: as §2
# [8] = tested on: A549 human lung carcinoma cell line; conditions: read-out: IC50 of Compound 1 tartrate; A549, NSCLC; ATP levels 72 h post-treatment compared to untreated cells
# Procedure: as §2
# [9] = tested on: PC-3 human prostatic carcinoma cell line; conditions: read-out: IC50 of Compound 1 tartrate; PC-3, Prostate; ATP levels 72 h post-treatment compared to untreated cells
# Procedure: as §2
# [10] = tested on: H460 non-small cell lung cancer cell line; conditions: read-out: IC50 of Compound 1 tartrate; H460, NSCLC; ATP levels 72 h post-treatment compared to untreated cells
# Procedure: as §2
# [11] = tested on: B16-F1 mouse melanoma cell line; conditions: read-out: IC50 of Compound 1 tartrate; B16-F1, Murine Melanoma; ATP levels 72 h post-treatment compared to untreated cells
# Procedure: as §2
# [12] = tested on: cancer cell lines H1299 and C33A, normal cell lines HMEC and MRC-5; conditions: 0.5 μM, 72 hours after treatment; H1299 and C33A vs HMEC and MRC-5; FIG. 1
# Procedure: as §2
# [13] = tested on: HMEC normal mammary epithelial cells
# Procedure: as §2
# [14] = tested on: OVCAR-3 human ovarian carcinoma cell line; conditions: read-out: IC50 of Compound 1 tartrate; OVCAR-3, Ovary; ATP levels 72 h post-treatment compared to untreated cells
# Procedure: as §2
# [15] = tested on: SW-480 human adenocarcinoma cell line; conditions: read-out: IC50 of Compound 1 tartrate; SW-480, Colorectal; ATP levels 72 h post-treatment compared to untreated cells
# Procedure: as §2
# [16] = tested on: C33A cervical carcinoma cells; assay: cells; format: cell-based
# Text: (§3) […]. […] […]. The total dimethyl sulfoxide on the cells was 1%. […] […].
# (§4) As depicted in Table 4, these compounds were efficient in decreasing cellular ATP levels in HI 299 and C33A cancer cell lines. Nevertheless, these compounds are believed to have utility in the in vivo methods of the invention, i.e., treatment and prevention of cancer and viral infections, respectively. It should be noted that, although this cell-based assay is believed to be indicative of anti-oncogenic activity in vivo, it is not the only useful assay for evaluating the anti-oncogenic activity of Triheterocyclic Compounds of the invention. In addition, the anti-viral and other biological activity of compounds of the invention can be determined and evaluated in other assay systems known to the skilled artisan.
# [17] = tested on: C33A human cervical cancer cells; conditions: for reduction in tumor growth compared to vehicle only: 4.5 mg/kg IV once a day for five days, C33A tumors in SCID mice, FIG. 3; for T/C value: 4.5 mg/kg IV once daily for five days
# Procedure: The resultant mice are a model for a human having cervical cancer.
# The C33A human cervical cancer cells were maintained in RPMI (Hyclone, Utah, USA) supplemented with 10% inactivated fetal bovine serum (Bio-Whittaker, MD, USA) and 1% penicillin-streptomycin-L-Glutamine (Gibco, N.Y., USA), under 5% CO2 at 37° C., and passaged twice a week. The cells were grown at a confluency lower than 70% and than collected with Trypsin (Bio-Whittaker, MD, USA). The cells were then centrifuged and washed twice using phosphate buffered saline solution (PBS) and resuspended in PBS at 2×10^6 cells per 100 μl.
# C33A cells were injected subcutaneously into the flank of female CB17 SCID/SCID mice. Each mouse was inoculated with a suspension of 2×10^6 tumors cells per 150 μl on day zero.
# Treatments started on day fourteen after C33A cells transplantation. […] The negative control group was treated with vehicle alone. […] The positive control group was treated once every 3 days for five times with cisplatin (Sigma, St. Louis, Mo., USA) at a dose of 4 mg/kg. Cisplatin was formulated in PBS on each day of the injection and was administered IP in an injection volume of 80 μl.
# The mice were weighed and the tumors measured on day 13 and every 2 days after treatment commenced. Observation continued for 40 days after initial tumor implantation. The changes in body weight and in the calculated tumor volume were plotted.
# [18] = tested on: H1299 human non-small cell lung cancer cells; assay: Cell viability by cellular ATP levels (ViaLight), H1299 cells; format: cell-based
# Text: as §3, §4
# [19] = Homo sapiens, C-33-A, C33A, cellular ATP levels as described in Example 2, read-out: IC50 (μM) C33A, Effect on Cancer Cells Viability
# [20] = Homo sapiens, NCI-H1299, H1299, cellular ATP levels as described in Example 2, read-out: IC50 (μM) H1299, Effect on Cancer Cells Viability
# T1 sequence (P05187 23-506): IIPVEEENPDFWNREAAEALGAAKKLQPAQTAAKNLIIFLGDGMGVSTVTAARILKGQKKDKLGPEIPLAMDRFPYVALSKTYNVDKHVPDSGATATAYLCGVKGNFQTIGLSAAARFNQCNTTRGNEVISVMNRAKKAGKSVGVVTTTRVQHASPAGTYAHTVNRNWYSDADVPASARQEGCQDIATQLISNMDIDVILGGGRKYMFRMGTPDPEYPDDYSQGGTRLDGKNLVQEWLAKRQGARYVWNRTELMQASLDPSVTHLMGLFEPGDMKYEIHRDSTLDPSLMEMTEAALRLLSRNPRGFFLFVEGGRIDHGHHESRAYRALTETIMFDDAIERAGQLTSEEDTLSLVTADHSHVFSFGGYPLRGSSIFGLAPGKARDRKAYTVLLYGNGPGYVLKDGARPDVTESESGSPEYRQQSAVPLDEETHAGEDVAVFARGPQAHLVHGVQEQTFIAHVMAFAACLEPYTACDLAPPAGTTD
structure (smiles),measurement,setting,value
COC1=CC(c2cc3ccccc3[nH]2)=N/C1=C\c1[nH]c(C)cc1C [Compound 1 Mesylate Salt],growth of prostatic tumors in mice,[1],significantly reduce the growth of prostatic tumors
same,precipitation of formulation,[2],no evidence of precipitation 72 hours after its preparation
COC1=CC(c2cc3ccccc3n2C(=O)CC(C)(C)c2c(C)cccc2OP(=O)(O)O)=N/C1=C/c1[nH]c(C)cc1C [Compound 66],conversion of pro-drug into Compound 1,[3],convert a fraction of the pro-drug
same,growth of prostatic tumors in mice,[1],significantly reduce the growth of prostatic tumors
same,conversion of pro-drug into Compound 1,[4],convert a fraction of the pro-drug
same,solubility,physchem,10000 µg/mL
"N.N.[Cl][Pt][Cl] [cisplatin, reference compound]",deaths,"[5]; cisplatin 4 mg/kg IP, days 29 and 32",Two mice died
same,weight loss,"[5]; day 29, cisplatin 4 mg/kg IP once every 3 days for five times",28%
COC1=CC(c2cc3ccccc3[nH]2)=N/C1=C\c1[nH]c(C)cc1C [Compound 1 tartrate],precipitation of formulation,[2]; listed as Compound 1 Tartrate Salt,tends to precipitate one hour after its preparation
same,IC50,[6],600 nM
same,IC50,[7],400 nM
same,IC50,[8],400 nM
same,IC50,[9],200 nM
same,IC50,[10],300 nM
same,IC50,[11],60 nM
same,lowering of ATP levels in cancer cell lines compared with normal cell lines,[12],significantly more effective at lowering ATP levels
same,IC50,"[13]; read-out: IC50 of Compound 1 tartrate, HMEC, Normal Breast, ATP levels 72 h post-treatment compared to untreated cells",4000 nM
same,efficacy in decreasing cellular ATP levels in cancer cell lines versus HMEC normal cell line,"[13]; ten cancer cell lines vs HMEC, various concentrations",greater efficacy in decreasing cellular ATP levels
same,IC50,[14],200 nM
same,IC50,[15],200 nM
same,IC50,"[16]; C-33A, Cervix, ATP levels 72 h post-treatment compared to untreated cells, read-out: IC50 of Compound 1 tartrate",0.2 µM
same,reduction in tumor growth compared to vehicle only,[17],statistically significant (p<0.0001) reduction in tumor growth
same,reduction in tumor growth compared to vehicle only,[17]; listed as Compound 1 Tartrate,significantly reduces the human cervical tumors
same,T/C value,[17]; day 36,14%
same,T/C value,[17]; day 39,22%
same,average tumor size versus vehicle only,"[17]; days 36 and 39, 4.5 mg/kg",significantly (p<0.001) smaller tumors
same,body weight change,[5],no significant changes in body weight
same,body weight change,[5]; listed as Compound 1 Tartrate,non-significant weight loss
same,IC50,"[18]; H1299, NSCLC, ATP levels 72 h post-treatment compared to untreated cells, read-out: IC50 of Compound 1 tartrate",0.5 µM
"COC1=CC(c2cc3ccccc3n2C(=O)N(C)C)=N/C1=C\c1[nH]c(C)cc1C [Compound 39, 2-[5-(3,5-Dimethyl-1H-pyrrol-2-ylmethylene)-4-methoxy-5H-pyrrol-2-yl]-indole-1-carboxylic acid dimethylamide]",IC50,[16]; [19],2.95 µM
same,IC50,[18]; [20],5.67 µM
"COC1=CC(c2[nH]c3ccccc3c2C(=O)c2ccc(-c3ccccn3)s2)=N/C1=C\c1[nH]c(C)cc1C [Compound 22, {2-[5-(3,5-Dimethyl-1H-pyrrol-2-ylmethylene)-4-methoxy-5H-pyrrol-2-yl]-1H-indol-3-yl}-(5-pyridin-2-yl-thiophen-2-yl)-methanone]",IC50,[16]; [19],6.46 µM
same,IC50,[18]; [20],7.19 µM
"Cc1cc(C)c(/C=C2\N=C(c3cc4ccc(O)cc4[nH]3)C=C2OC(C)C)[nH]1 [Compound 56, 2-[5-(3,5-Dimethyl-1H-pyrrol-2-ylmethylene)-4-isopropoxy-5H-pyrrol-2-yl]-1H-indol-6-ol]",IC50,[16]; [19],2.54 µM
same,IC50,[18]; [20],5.96 µM
